Assay [1] deals with T1, human RORγt ligand binding domain (RORγt LBD) (Homo sapiens, UniProt P51449).
T1 construct: His-tag (N); TurboTEV protease cleavage site (ENLYFQG) (N); made in house; host or cells: E. coli (pHIS1, a modified pET expression vector)
T1 sequence (P51449 with tags, fused parts or gaps): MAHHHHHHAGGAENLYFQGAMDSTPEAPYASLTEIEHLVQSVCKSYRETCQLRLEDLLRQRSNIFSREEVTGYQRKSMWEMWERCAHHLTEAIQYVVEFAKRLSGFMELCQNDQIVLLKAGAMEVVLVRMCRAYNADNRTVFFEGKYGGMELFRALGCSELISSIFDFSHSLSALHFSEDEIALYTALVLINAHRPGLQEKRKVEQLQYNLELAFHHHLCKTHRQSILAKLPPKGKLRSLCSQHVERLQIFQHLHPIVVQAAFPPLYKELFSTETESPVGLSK
As to the kind of experiment: RORγt ThermoFluor assay. The following applies: estimated from thermal shift concentration response. How it is done:
This approach is applicable to a wide variety of systems, and rigorous in theoretical interpretation through quantitation of equilibrium binding constants (KD).
The shift in the melting point described as a ΔTm is proportional to the concentration and affinity of the ligand.
Protein and compound solutions are dispensed into black 384-well polypropylene PCR microplates (Abgene) and overlayed with silicone oil (1 μL, Fluka, type DC 200) to prevent evaporation.
Bar-coded assay plates are robotically loaded onto a thermostatically controlled PCR-type thermal block and then heated at a typical ramp-rate of 1° C./min for all experiments.
Fluorescence was measured by continuous illumination with UV light (Hamamatsu LC6) supplied via fiber optic and filtered through a band-pass filter (380-400 nm; >6 OD cutoff). Fluorescence emission of the entire 384-well plate was detected by measuring light intensity using a CCD camera (Sensys, Roper Scientific) filtered to detect 500±25 nm, resulting in simultaneous and independent readings of all 384 wells. Images were collected at each temperature, and the sum of the pixel intensity in a given area of the assay plate was recorded versus temperature. Reference wells contained RORγt without compounds, and the assay conditions were as follows: • 0.065 mg/mL RORγt • 60 μM 1,8-ANS • 100 mM Hepes, pH 7.0 • 10 mM NaCl • 2.5 mM GSH • 0.002% Tween-20
Project compounds were arranged in a pre-dosed mother plate (Greiner Bio-one) wherein compounds are serially diluted in 100% DMSO by 1:2 from a high concentration of 10 mM over 12 columns within a series (column 12 is a reference well containing DMSO, no compound). The compounds were robotically dispensed directly into assay plates (1×=46 nL) using a Hummingbird capillary liquid handling instrument (Digilab). Following compound dispense, protein and dye in buffer was added to achieve the final assay volume of 3 μL, followed by 1 μL of silicone oil.

The next assay addresses T2, full-length human RORγt (Homo sapiens, UniProt P51449).
T2 construct: expressed in transfected cells; host or cells: HEK293T, transiently transfected with pCMV-BD-ROR
T2 sequence (P51449 1-497 isoform P51449-2): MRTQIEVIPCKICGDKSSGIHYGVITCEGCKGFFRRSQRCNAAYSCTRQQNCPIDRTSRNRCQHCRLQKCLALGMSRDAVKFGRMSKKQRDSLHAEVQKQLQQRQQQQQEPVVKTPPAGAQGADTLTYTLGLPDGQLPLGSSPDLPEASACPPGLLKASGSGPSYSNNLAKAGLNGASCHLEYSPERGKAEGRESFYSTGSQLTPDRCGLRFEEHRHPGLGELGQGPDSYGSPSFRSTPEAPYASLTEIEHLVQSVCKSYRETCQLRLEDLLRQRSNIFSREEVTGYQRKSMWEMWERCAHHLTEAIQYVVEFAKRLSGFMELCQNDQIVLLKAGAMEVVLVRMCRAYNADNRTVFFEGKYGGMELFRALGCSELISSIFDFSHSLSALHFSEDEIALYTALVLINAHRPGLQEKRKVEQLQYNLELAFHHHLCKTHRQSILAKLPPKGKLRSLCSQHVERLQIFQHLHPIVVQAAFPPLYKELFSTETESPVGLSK
As to the kind of experiment: RORγt (full-length human) Reporter Assay, Conditions A. The assay is classed as cell-based. The following applies: for IC50: HEK293T cells, GAL4-DBD-RORγt, luciferase, read-out: RORγt (FL) Reporter Assay A, IC50; for inhibition at 6 µM: read-out: RORγt (FL) Reporter Assay A, % inhibition @ 6 μM, 6 μM compound. Here is the method: After overnight (16 to 20 hours) incubation, media were removed and cells were lysed with 20 μL 1× Passive Lysis Buffer (Promega) for 10-15 minutes. Luminescence was measured using a BMG LUMIstar OPTIMA plate reader, after addition of 75 μL/well firefly luciferase buffer, followed by 75 μL/well Renilla luciferase buffer. To calculate the effect of compounds on RORγt activity, firefly values were normalized against values of DMSO only and values of reference compound at saturating concentration, then further normalized against Renilla signals. IC50s were generated by plotting final Renilla normalized data against compound concentration and percent inhibition was calculated against DMSO control.
On the technique in general: A reporter such as luciferase makes a cellular process visible.

Molecules are shown by their SMILES.

A word on the Kd: it is the free concentration of one partner at which half of the binding sites on the other are occupied at equilibrium, for simple one-to-one binding. One may read the IC50 as the concentration needed to halve the response being measured. The inhibition is the relative decrease from the control value, in per cent.

On to `CCN(CC)C(=O)c1nc(-c2nnc(C(N)=O)o2)sc1-c1ccc(S(=O)(=O)N[C@@H](C)C(F)(F)F)c(Cl)c1Cl` [Example 5/1, (S)-5-(5-(2,3-Dichloro-4-(N-(1,1,1-trifluoropropan-2-yl)sulfamoyl)phenyl)-4-(diethylcarbamoyl)thiazol-2-yl)-1,3,4-oxadiazole-2-carboxamide], for which, in assay [1], the Kd was 120 nM. At full-length human RORγt, the IC50 is 280 nM and the inhibition at 6 µM worked out at 105%.
In the case of `CC[C@H](NS(=O)(=O)c1ccc(-c2sc(-c3nnc(C(C)(C)O)o3)nc2C(=O)N(CC)CC)c(Cl)c1Cl)C(F)(F)F` [Example 6, (S)-5-(2,3-Dichloro-4-(N-(1,1,1-trifluorobutan-2-yl)sulfamoyl)phenyl)-N,N-diethyl-2-(5-(2-hydroxypropan-2-yl)-1,3,4-oxadiazol-2-yl)thiazole-4-carboxamide], in assay [1], the Kd is 0.99 nM. In addition, the IC50 at full-length human RORγt amounted to 13 nM. The inhibition at 2 µM at full-length human RORγt (read-out: RORγt (FL) Reporter Assay A, % inhibition (* at 2 μM), 2 μM compound concentration (footnote *)) was determined as 105%.
Consider `C[C@H](NS(=O)(=O)c1ccc(-c2sc(-c3nnc(C(C)(C)O)o3)nc2C(=O)N2CCC(F)(F)C2)c(Cl)c1Cl)C(F)(F)F` [Example 6/2, (S)-2,3-Dichloro-4-(4-(3,3-difluoropyrrolidine-1-carbonyl)-2-(5-(2-hydroxypropan-2-yl)-1,3,4-oxadiazol-2-yl)thiazol-5-yl)-N-(1,1,1-trifluoropropan-2-yl)benzenesulfonamide], for which, in assay [1], the Kd is 7.6 nM. For the same compound, at full-length human RORγt, the half-inhibitory concentration (IC50) was determined as 38 nM and the inhibition at 6 µM came out at 108%.
Take `CC[C@H](NS(=O)(=O)c1ccc(-c2sc(-c3nnc(C(C)(C)O)o3)nc2C(=O)N2CCC(F)(F)CC2)c(C(F)F)c1F)C(F)(F)F` [Example 6/3, (S)-3-(Difluoromethyl)-4-(4-(4,4-difluoropiperidine-1-carbonyl)-2-(5-(2-hydroxypropan-2-yl)-1,3,4-oxadiazol-2-yl)thiazol-5-yl)-2-fluoro-N-(1,1,1-trifluorobutan-2-yl)benzenesulfonamide]: in assay [1], the Kd was 1.7 nM. For the same compound, at full-length human RORγt, the IC50 came out at 27 nM and the inhibition at 6 µM was found to be 110%.
For `C[C@H](NS(=O)(=O)c1ccc(-c2sc(-c3nnc(C(C)(C)O)o3)nc2C(=O)N2CC(F)(F)C[C@@H]2C)c(C(F)F)c1F)C(F)(F)F` [Example 6/4, 4-(4-((S)-4,4-Difluoro-2-methylpyrrolidine-1-carbonyl)-2-(5-(2-hydroxypropan-2-yl)-1,3,4-oxadiazol-2-yl)thiazol-5-yl)-3-(difluoromethyl)-2-fluoro-N—((S)-1,1,1-trifluoropropan-2-yl)benzenesulfonamide] the same measures were 6.8 nM, 82 nM and 108%.
The matching figures for `C[C@H](NS(=O)(=O)c1ccc(-c2sc(-c3nnc(C(C)(C)O)o3)nc2C(=O)N2CC(F)(F)C[C@@H]2C)c(Cl)c1Cl)C(F)(F)F` [Example 6/5, 2,3-Dichloro-4-(4-((S)-4,4-difluoro-2-methylpyrrolidine-1-carbonyl)-2-(5-(2-hydroxypropan-2-yl)-1,3,4-oxadiazol-2-yl)thiazol-5-yl)-N—((S)-1,1,1-trifluoropropan-2-yl)benzenesulfonamide]: 0.6 nM, 23 nM and 103%.
The matching figures for `CCCN(C)C(=O)c1nc(-c2nnc(C(C)(C)O)o2)sc1-c1ccc(S(=O)(=O)N[C@@H](C)C(F)(F)F)c(Cl)c1Cl` [Example 6/6, (S)-5-(2,3-Dichloro-4-(N-(1,1,1-trifluoropropan-2-yl)sulfamoyl)phenyl)-2-(5-(2-hydroxypropan-2-yl)-1,3,4-oxadiazol-2-yl)-N-methyl-N-propylthiazole-4-carboxamide]: 16 nM, 72 nM and 110%.
As to `CCN(C(=O)c1nc(-c2nnc(C(C)(C)O)o2)sc1-c1ccc(S(=O)(=O)N[C@@H](C)C(F)(F)F)c(Cl)c1Cl)C(C)C` [Example 6/7, (S)-5-(2,3-Dichloro-4-(N-(1,1,1-trifluoropropan-2-yl)sulfamoyl)phenyl)-N-ethyl-2-(5-(2-hydroxypropan-2-yl)-1,3,4-oxadiazol-2-yl)-N-isopropylthiazole-4-carboxamide], in assay [1], the Kd is 1.7 nM. Further, on full-length human RORγt, the IC50 was found to be 38 nM and the inhibition at 6 µM came to 113%.
Regarding `CCCN(CC)C(=O)c1nc(-c2nnc(C(C)(C)O)o2)sc1-c1ccc(S(=O)(=O)N[C@@H](C)C(F)(F)F)c(Cl)c1Cl` [Example 6/8, (S)-5-(2,3-Dichloro-4-(N-(1,1,1-trifluoropropan-2-yl)sulfamoyl)phenyl)-N-ethyl-2-(5-(2-hydroxypropan-2-yl)-1,3,4-oxadiazol-2-yl)-N-propylthiazole-4-carboxamide], the Kd in assay [1] is 4.5 nM. Further, at full-length human RORγt, the IC50 is 30 nM and the inhibition at 6 µM turned out to be 108%.
For `C[C@H](NC(=O)c1cc(-c2sc(-c3nnc(C(C)(C)O)o3)nc2C(=O)N2CCC(F)CC2)cc(C2(C)CC2)c1)C(F)(F)F` [Example 6/10, (S)-3-(4-(4-Fluoropiperidine-1-carbonyl)-2-(5-(2-hydroxypropan-2-yl)-1,3,4-oxadiazol-2-yl)thiazol-5-yl)-5-(1-methylcyclopropyl)-N-(1,1,1-trifluoropropan-2-yl)benzamide] the same measures were 45 nM, 210 nM and 101%.
In the case of `CC[C@H](NS(=O)(=O)c1ccc(-c2sc(-c3nnc(C(C)(C)O)o3)nc2C(=O)N2CCC(F)CC2)c(Cl)c1)C(F)(F)F` [Example 6/11, (S)-3-Chloro-4-(4-(4-fluoropiperidine-1-carbonyl)-2-(5-(2-hydroxypropan-2-yl)-1,3,4-oxadiazol-2-yl)thiazol-5-yl)-N-(1,1,1-trifluorobutan-2-yl)benzenesulfonamide], the Kd in assay [1] is 9.3 nM. For the same compound, at full-length human RORγt, the IC50 turned out to be 69 nM and the inhibition at 6 µM is 104%.
Regarding `CC[C@H](NS(=O)(=O)c1ccc(-c2sc(-c3nnc(C(C)(C)O)o3)nc2C(=O)N2CCC(F)(F)CC2)c(Cl)c1)C(F)(F)F` [Example 6/12, (S)-3-Chloro-4-(4-(4,4-difluoropiperidine-1-carbonyl)-2-(5-(2-hydroxypropan-2-yl)-1,3,4-oxadiazol-2-yl)thiazol-5-yl)-N-(1,1,1-trifluorobutan-2-yl)benzenesulfonamide], the Kd in assay [1] was 10 nM. On full-length human RORγt, the half-inhibitory concentration (IC50) came out at 55 nM and the inhibition at 6 µM amounted to 103%.
The matching figures for `CC[C@H](NS(=O)(=O)c1ccc(-c2sc(-c3nnc(C(C)(C)O)o3)nc2C(=O)N2CC(F)(F)C2)c(Cl)c1)C(F)(F)F` [Example 6/13, (S)-3-Chloro-4-(4-(3,3-difluoroazetidine-1-carbonyl)-2-(5-(2-hydroxypropan-2-yl)-1,3,4-oxadiazol-2-yl)thiazol-5-yl)-N-(1,1,1-trifluorobutan-2-yl)benzenesulfonamide]: 590 nM, 1100 nM and 90%.

Values taken from US9845319B2, “Amide substituted thiazoles as modulators of RORyt” (Janssen Pharmaceutica NV, priority 2014, dated 2017).
